In publication PMC12592139, “Quantitative assessment of the usability of electromechanical human-based modelling and simulation to replace Langendorff isolated rabbit heart experiments in the preclinical setting” (Frontiers in Pharmacology, 2025):
pIC50: −log10 of the molar value. Where two headings read alike, the source gives them in different places.

Experiments:
hERG channel = hERG channel (Homo sapiens, UniProt Q12809); test: Automated patch-clamp (QPatch) on hERG channel
Description: (§1) The QPatch system (Sophion, Denmark) was used to investigate hERG, hNav1.5 and hKv4.3, and the SyncroPatch system (Nanion, Germany) was employed for hCav1.2. Recordings for all 37 compounds were performed at 21 °C.
(§2) When a Hill coefficient was not available, it was approximated as 1.

hNCX1 = target: T1, hNCX1 (Homo sapiens, UniProt P32418); test: Cell-based calcium mobilization assay on CHO cell lines expressing NCX1; conditions: for pIC50: Fluo4-AM
T1 construct: expressed in transfected cells; host or cells: CHO cell lines
Description: Furthermore, in vitro potency for 11 compounds was assessed on the NCX isoforms using a cell-based calcium mobilization assay on CHO cell lines expressing NCX1, NCX2 or NCX3. Measurements of intracellular calcium concentration employed a fluorescent imaging plate reader (Molecular Devices, United States) with the calcium-sensitive dye Fluo4-AM. Detailed methods are described in [Pelat et al. (2021)].

L-type calcium current = tested on: L-type calcium current; design: method as in Trovato et al., 2025; conditions: at EC50; ref Trovato et al., 2025; cited from earlier work
isolated rabbit heart = test: Ex vivo rabbit whole-heart Langendorff experiments (QT, left ventricular pressure); conditions: 0.1µM
Description: Routine experimental measurements used in this study were retrieved from already existing datasets collected and curated by Sanofi, contributing to the 3R principles in animal experimentation: replacement, reduction and refinement. All the procedures described in the present study were performed in agreement with the European regulation (2010/63/EU) and under the approval and control of Sanofi’s ethics committee. […]
Hearts were spontaneously beating. […] The left ventricular pressure was evaluated using a pressure transducer within a saline-filled latex balloon inserted into the ventricular chamber. […] The electrocardiogram was recorded with two flexible electrodes gently pressed on the epicardium. The ECG parameters PQ, QRS, and QT durations were calculated using specific software (HEM-Notocord systems).
After stabilization, pressure was recorded with the vehicle for 15 min and used as a control period. […]
Baseline biomarker measurements were established in control conditions for both ex vivo experiments and in silico simulations, benchmarking compound results at each concentration against these respective controls. Percent variations of means for experiments and simulations were calculated. In the population, these variations were measured against each cell’s control, and the group mean is calculated.

QTc = conditions: clinical, administered in isolation; ref El Kadri et al., 2022; Morrisette et al., 2020; cited from earlier work
late hNav1.5 = late hNav1.5 (Homo sapiens, UniProt Q14524); test: Late hNav1.5 inhibition in vitro; assay type: cell-based
hNav1.5 = hNav1.5 (Homo sapiens, UniProt Q14524); test: Automated patch-clamp (QPatch) on hNav1.5 (peak sodium current)
Description: as §1, §2

hCav1.2 = hCav1.2 (Homo sapiens, UniProt Q13936); test: Automated patch-clamp (SyncroPatch) on hCav1.2
Description: as §1, §2

hKv4.3 = target: T2, hKv4.3 (Homo sapiens, UniProt Q9UK17); test: Automated patch-clamp (QPatch) on hKv4.3; assay type: cell-based
T2 construct: expressed in transfected cells
T2 sequence (Q9UK17 1-655): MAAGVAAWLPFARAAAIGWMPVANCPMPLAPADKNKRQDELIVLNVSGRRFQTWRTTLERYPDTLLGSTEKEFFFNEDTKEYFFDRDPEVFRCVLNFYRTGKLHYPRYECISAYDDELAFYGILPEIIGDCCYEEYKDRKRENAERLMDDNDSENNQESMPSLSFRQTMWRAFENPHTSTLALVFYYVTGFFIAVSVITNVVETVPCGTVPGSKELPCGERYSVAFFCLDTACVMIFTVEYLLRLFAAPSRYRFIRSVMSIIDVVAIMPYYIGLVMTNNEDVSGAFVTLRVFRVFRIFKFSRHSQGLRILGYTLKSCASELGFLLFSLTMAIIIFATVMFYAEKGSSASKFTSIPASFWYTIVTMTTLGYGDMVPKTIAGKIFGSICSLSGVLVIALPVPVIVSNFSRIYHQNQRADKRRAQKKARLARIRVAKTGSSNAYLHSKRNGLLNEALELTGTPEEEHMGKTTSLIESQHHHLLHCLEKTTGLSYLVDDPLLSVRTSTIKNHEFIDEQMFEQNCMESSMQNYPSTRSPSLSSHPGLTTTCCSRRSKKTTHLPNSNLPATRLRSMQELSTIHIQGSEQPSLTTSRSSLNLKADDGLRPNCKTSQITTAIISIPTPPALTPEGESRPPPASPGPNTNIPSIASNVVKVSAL
Description: Following the procedure in [Trovato et al. (2022)], we used automated patch-clamp platforms to study four ionic currents relevant to human repolarisation, as outlined by [Zhou et al. (2020)] as the minimum set of ion channels, marked by the CiPA Ion Channel Work Group, for reliable predictions of repolarisation abnormalities. […] The QPatch system (Sophion, Denmark) was used to investigate hERG, hNav1.5 and hKv4.3, and the SyncroPatch system (Nanion, Germany) was employed for hCav1.2. Recordings for all 37 compounds were performed at 21 °C.
as §2

[1] = CHO cells, calcium mobilization

Sequence of hNav1.5 (Q14524 whole entry): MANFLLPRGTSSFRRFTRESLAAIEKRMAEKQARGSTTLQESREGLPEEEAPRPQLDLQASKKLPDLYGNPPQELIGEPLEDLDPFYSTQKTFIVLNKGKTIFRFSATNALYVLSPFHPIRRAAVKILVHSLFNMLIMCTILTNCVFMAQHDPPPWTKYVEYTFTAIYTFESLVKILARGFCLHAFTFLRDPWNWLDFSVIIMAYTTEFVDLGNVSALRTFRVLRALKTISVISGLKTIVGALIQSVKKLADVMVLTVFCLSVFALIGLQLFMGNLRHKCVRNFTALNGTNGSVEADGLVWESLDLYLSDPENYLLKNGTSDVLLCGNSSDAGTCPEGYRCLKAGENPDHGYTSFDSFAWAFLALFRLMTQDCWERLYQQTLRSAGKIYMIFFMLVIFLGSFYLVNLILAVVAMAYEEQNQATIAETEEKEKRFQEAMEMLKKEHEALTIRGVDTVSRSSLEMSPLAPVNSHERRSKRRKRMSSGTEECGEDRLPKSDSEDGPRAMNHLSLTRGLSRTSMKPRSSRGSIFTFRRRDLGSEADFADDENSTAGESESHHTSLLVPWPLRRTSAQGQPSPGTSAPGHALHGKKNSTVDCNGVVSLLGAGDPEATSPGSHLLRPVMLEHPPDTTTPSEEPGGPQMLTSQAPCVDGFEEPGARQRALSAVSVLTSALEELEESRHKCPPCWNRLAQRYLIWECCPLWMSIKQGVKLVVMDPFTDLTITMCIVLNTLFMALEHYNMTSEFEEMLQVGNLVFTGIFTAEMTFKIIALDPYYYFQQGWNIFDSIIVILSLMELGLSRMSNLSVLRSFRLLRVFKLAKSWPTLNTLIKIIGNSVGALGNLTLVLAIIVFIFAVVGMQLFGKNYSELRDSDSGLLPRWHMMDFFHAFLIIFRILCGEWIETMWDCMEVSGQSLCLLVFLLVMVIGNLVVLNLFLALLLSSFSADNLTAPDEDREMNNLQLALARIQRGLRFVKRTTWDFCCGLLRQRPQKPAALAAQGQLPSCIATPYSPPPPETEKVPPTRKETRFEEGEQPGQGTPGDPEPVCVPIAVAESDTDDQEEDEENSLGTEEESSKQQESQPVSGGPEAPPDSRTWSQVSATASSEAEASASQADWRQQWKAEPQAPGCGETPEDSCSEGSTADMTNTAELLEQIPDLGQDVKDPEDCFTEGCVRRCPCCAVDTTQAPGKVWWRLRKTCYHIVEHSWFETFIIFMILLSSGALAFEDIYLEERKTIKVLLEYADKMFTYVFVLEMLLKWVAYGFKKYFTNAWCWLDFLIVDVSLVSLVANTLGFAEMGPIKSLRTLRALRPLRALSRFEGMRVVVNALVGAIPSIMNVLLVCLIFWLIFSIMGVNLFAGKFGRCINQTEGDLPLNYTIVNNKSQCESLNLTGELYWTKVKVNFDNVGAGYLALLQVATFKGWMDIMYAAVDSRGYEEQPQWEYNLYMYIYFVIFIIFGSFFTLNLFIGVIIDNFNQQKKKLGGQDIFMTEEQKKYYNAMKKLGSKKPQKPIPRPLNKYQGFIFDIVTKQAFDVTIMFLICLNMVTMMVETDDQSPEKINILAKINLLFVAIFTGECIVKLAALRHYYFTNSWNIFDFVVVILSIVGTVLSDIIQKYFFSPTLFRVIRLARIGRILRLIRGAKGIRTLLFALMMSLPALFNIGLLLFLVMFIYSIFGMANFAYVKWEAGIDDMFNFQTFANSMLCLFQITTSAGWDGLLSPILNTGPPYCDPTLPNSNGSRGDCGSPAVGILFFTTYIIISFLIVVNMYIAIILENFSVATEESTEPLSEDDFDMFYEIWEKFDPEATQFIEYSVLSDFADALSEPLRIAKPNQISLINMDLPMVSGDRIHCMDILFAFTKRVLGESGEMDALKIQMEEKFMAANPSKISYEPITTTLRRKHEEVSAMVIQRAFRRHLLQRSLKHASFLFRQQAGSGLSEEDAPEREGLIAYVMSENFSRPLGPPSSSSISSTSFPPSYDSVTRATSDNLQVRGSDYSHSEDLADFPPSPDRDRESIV
Sequence of hERG channel (Q12809 whole entry): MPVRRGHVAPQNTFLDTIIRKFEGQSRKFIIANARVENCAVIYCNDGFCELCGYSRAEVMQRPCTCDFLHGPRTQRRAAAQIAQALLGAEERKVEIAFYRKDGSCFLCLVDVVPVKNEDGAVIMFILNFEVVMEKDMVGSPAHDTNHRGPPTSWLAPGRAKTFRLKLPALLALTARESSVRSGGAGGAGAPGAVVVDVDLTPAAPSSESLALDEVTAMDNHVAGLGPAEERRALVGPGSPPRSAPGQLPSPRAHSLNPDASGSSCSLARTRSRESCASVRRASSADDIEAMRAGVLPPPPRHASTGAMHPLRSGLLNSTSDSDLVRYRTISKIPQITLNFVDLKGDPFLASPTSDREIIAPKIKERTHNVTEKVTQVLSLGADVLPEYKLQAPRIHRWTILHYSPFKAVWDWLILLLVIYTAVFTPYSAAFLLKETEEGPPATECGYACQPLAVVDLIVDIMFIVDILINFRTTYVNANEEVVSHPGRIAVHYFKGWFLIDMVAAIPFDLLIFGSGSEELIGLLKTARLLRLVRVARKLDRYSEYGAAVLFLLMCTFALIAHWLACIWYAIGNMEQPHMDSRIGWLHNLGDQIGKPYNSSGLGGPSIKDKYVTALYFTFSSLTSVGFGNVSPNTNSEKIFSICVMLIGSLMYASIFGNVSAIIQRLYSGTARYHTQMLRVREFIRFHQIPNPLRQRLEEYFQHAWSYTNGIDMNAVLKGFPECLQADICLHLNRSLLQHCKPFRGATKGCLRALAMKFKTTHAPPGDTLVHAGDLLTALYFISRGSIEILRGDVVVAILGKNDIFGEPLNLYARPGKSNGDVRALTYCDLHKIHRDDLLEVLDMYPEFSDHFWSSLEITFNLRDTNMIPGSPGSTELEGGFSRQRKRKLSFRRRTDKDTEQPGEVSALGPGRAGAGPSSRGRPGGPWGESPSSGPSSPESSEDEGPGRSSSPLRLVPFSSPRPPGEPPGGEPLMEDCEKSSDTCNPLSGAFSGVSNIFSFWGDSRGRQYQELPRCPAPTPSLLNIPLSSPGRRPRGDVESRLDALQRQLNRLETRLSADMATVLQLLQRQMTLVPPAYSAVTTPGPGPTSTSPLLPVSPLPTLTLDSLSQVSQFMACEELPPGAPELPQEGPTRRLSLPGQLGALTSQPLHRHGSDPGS

Row | hNCX1 % block @ 30 µM (hNCX1) | Compound | pIC50 (hERG channel) | pIC50 (hNav1.5) | pIC50 (hCav1.2) | further results
1 | – | C[C@@H]1OCC2(CCN(c3cnc(Sc4ccnc(N)c4Cl)c(N)n3)CC2)[C@@H]1N [SA6687, Batoprotafib] | 5.10 | – | – | –
2 | 15.00% | CC(CCc1ccc(O)cc1)NCCc1ccc(O)c(O)c1 (centres unmarked) [Dobutamine] | 4.66 | – | – | NCX inhibition (hNCX1): does not inhibit; increase of L-type calcium current (factor) (L-type calcium current): 1.22; increase in ventricular pressure (isolated rabbit heart): 17%
3 | 14% | CCN(CCO)CCCC(C)Nc1ccnc2cc(Cl)ccc12 (centres unmarked) [SA1068, Hydroxychloroquine] | 5.15 | 4.05 | 5.12 | pIC50 (hNCX1; [1]): < 4.52; average increase in QTc (QTc): 11 ms; Late Nav1.5 % block @ 30 µM (late hNav1.5; 30 µM): 15%; pIC50 (late hNav1.5; read-out: Late Nav1.5 IC50): < 4.52
4 | 17.00% | CN=C(N)NC(=O)Nc1c(C)cccc1C [SA9977, Lidamidine] | – | – | – | pIC50 (hERG channel; human): < 4.52
5 | – | [H]/N=C(\N/C(=N/[H])Nc1ccc(Cl)cc1)NC(C)C [SA1790, Paludrine] | < 4.52 | – | – | –
6 | – | COC(=O)N1CCN(Cc2cccc(NC(=O)Nc3ccc(C)nc3)c2F)CC1 [SA3064, Omecamtiv] | – | – | – | pIC50 (hERG channel; read-out: hERG IC50, automated patch-clamp, 21 °C, IC50 not achieved taken at maximum concentration or estimated with Hill coefficient 1): 3.90
7 | – | C=C(C)[C@@H]1CCC(C)=C[C@H]1c1c(O)cc(CCCCC)cc1O [SA5067, Cannabidiol] | 4.66 | 4.55 | 4.93 | hNCX1 nh (Hill coefficient) (hNCX1; [1]): nH 1.7; pIC50 (hNCX1; [1]): 4.72; pIC50 (hKv4.3): 5.11
8 | – | CN(C)C(=O)C(CCN1CCC(O)(c2ccc(Cl)cc2)CC1)(c1ccccc1)c1ccccc1 [SA2089, Loperamide] | – | 5.68 | 5.41 | –
9 | – | CN1CCN(C2=Nc3cc(Cl)ccc3Nc3ccccc32)CC1 [SA5332, Clozapine] | – | 4.64 | – | pIC50 (hKv4.3; automated patch-clamp, 21 °C, IC50 not achieved taken at maximum concentration or estimated with Hill coefficient 1, read-out: Kv4.3 IC50): 4.21

Row | Compound | hNCX1 % block @ 30 µM (hNCX1) | pIC50 (hERG channel) | pIC50 (hNav1.5) | pIC50 (hCav1.2) | further results
10 | CCN(CC)CC(=O)Nc1c(C)cccc1C [SA5350, Lidocaine] | 6.00% | – | – | – | –
